Columns and labels:
[1] = system: forearm of a human volunteer; assay: Human vasoconstriction (blanching) testing, AUC through 18 hours; format: in vivo; settings: for effect on the time period during which hydrocortisone displayed activity / effect on the vasoconstrictor activity of hydrocortisone: co-applied with hydrocortisone; for effect on the vasoconstrictor activity of hydrocortisone: molar ratio hydrocortisone:enhancer 1:5 to 1:1, particularly at the lower concentrations
Procedure: The combinations of the present invention have undergone human vasoconstriction, or blanching, testing. Such testing gives a reliable indication of local anti-inflammatory/glucocorticoid activity.
Test compounds at varying mM concentrations as noted below were dissolved in ethanol/propylene glycol (9/1) solution, and 20 μL of the mixtures were applied to filter paper discs, 0.7 cm in diameter. After ethanol evaporation, each disc was attached to waterproof adhesive tape, then applied to the forearm of a human volunteer and left in place for 4 hours. Groups of 6 forearms were tested at each concentration and the intensity of vasoconstriction was judged at 2, 4, 6, 8, 10, 12 and 18 hours after removal of the discs, except where otherwise indicated.
The grading scale for the vasoconstriction activity was as follows: 0, normal skin; 1, slight pallor of indistinct outline; 2, pallor with at least two corners outlined; 3, even pallor with a clear outline of the application sites; 4, very intense pallor. The scores were totaled at each concentration at each time after removal to give a total score at each time interval and an overall total for each concentration. The higher the total score, the greater the blanching or anti-inflammatory effect.
Tested in this manner were hydrocortisone, Δ^1-cortienic acid, the methyl ester of Δ^1-cortienic acid, a combination of hydrocortisone plus Δ^1-cortienic acid, and a combination of hydrocortisone plus the methyl ester of Δ^1-cortienic acid. The structures of the test compounds are shown below:
The data for Δ^1-CA alone and Δ^1-MeCA alone are from a group of 8 volunteers, rather than the 6 used for the other testing.

[2] = system: forearms of human volunteers; assay: Further human vasoconstriction testing, AUC through 24 hours; format: in vivo; settings: for AUC (sum of the individual vasoconstriction scores through 24 hours): total of 6 tests; for effect of increasing the ratio of (II) to (Ia/Ib) to about 2:1: HC 25 mM + enhancer 50 mM versus 1:1; for synergism with HC: ratios of HC:enhancer from 5:1 to 1:2
Procedure: The objective of this study was to evaluate the effect of Δ^1-cortienic acid (Δ^1-CA) and the methyl ester of Δ^1-cortienic acid (Δ^1-MeCA) on the vasoconstriction effect of hydrocortisone (HC). The structures for HC, Δ^1-CA and Δ^1-MeCA are given above.
HC (50 mM), Δ^1-CA (0, 10, 25, 50 and 100 mM) and Δ^1-MeCA (0, 10, 25, 50 and 100 mM) were dissolved in a vehicle containing absolute ethanol and propylene glycol (9:1). The resultant HC solutions were mixed (1:1) with vehicle only, or with the Δ^1-CA or Δ^1-MeCA solutions, so that 25 mM of final HC solutions containing various concentrations of Δ^1-CA or Δ^1-MeCA (0 to 50 mM) were obtained. The resultant mixtures (20 μl) were loaded onto circular paper discs (7 mm diameter) that were attached to a water impervious adhesive film (3M). After evaporation of ethanol, the films were applied to the forearms of human volunteers for 4 hours.
Subsequently, the vasoconstriction reaction was judged by the appearance of pallor at various time intervals after the removal of the discs and films (2, 4, 6, 8, 10, 12, 18 and 24 hours after removal). The grading scale was as follows: 0, normal skin; 1, slight pallor; 2, pallor with at least two corners outlined; 3, even pallor with a clear outline of the application sites; 4, very intense pallor. Due to the relatively high variations in response between volunteers, the total score of 6 tests at each time period was taken for the activity evaluation. As before, an overall total for each concentration was obtained. The results were as follows, where AUC was estimated at the sum of the individual scores through 24 hours.

[3] = target: T1, receptor ([3H]-triamcinolone acetonide as tracer) (Rattus norvegicus, UniProt P06536); settings: medium containing 10^−5M cortienic acid as competitor; cited from earlier work
T1 sequence (P06536 1-795): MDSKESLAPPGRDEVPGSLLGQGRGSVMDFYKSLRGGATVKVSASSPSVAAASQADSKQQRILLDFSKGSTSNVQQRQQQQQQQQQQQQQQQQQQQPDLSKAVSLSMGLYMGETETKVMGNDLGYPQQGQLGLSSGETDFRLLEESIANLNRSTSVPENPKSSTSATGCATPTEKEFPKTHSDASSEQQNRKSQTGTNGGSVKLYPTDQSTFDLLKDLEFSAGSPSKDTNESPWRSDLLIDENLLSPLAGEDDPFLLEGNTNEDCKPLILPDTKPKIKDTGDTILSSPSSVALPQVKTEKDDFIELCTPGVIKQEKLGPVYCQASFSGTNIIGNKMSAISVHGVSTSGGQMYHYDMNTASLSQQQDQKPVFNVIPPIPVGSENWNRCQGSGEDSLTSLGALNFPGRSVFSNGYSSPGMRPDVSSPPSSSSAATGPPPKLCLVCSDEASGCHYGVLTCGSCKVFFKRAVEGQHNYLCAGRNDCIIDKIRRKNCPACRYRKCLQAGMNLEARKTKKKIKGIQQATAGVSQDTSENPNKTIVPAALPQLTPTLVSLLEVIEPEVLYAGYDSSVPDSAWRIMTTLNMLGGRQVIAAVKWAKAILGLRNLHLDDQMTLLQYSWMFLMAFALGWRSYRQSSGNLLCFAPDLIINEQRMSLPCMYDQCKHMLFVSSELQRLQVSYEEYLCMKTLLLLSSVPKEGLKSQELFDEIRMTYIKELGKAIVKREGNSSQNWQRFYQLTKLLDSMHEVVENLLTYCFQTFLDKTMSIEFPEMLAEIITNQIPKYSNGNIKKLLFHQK

[4] = system: forearms of human volunteers; assay: Further human vasoconstriction testing, AUC through 24 hours; format: in vivo; settings: enhancing agent alone, 0.5-50 mM
[5] = enhancing agent alone, 0.5 mM, group of 8 volunteers
[6] = enhancing agent alone, 2.5 mM, group of 8 volunteers
[7] = enhancing agent alone, 5 mM, group of 8 volunteers
[8] = enhancing agent alone, 25 mM, group of 8 volunteers
[9] = enhancing agent alone, 50 mM, group of 8 volunteers

Structure (SMILES) | vasoconstriction activity when tested alone [1] | effect on the time period during which hydrocortisone displayed activity [1] | effect on the vasoconstrictor activity of hydrocortisone [1] | AUC (sum of the individual vasoconstriction scores through 18 hours) [1, 5] | AUC (sum of the individual vasoconstriction scores through 18 hours) [1, 6] | AUC (sum of the individual vasoconstriction scores through 18 hours) [1, 7] | AUC (sum of the individual vasoconstriction scores through 18 hours) [1, 8] | AUC (sum of the individual vasoconstriction scores through 18 hours) [1, 9] | effect of increasing the ratio of (II) to (Ia/Ib) to about 2:1 [2] | effect on the vasoconstriction activity of HC ([2]; co-applied with HC 25 mM) | synergism with HC [2] | AUC (sum of the individual vasoconstriction scores) [4] | further results
C[C@]12CCC(=O)C=C1CC[C@@H]1[C@@H]2[C@@H](O)C[C@@]2(C)[C@H]1CC[C@]2(O)C(=O)CO [Hydrocortisone, hydrocortisone, reference compound] | exhibited activity | – | – | – | – | – | – | – | – | – | – | – | time after removal of the disc by which activity was nearly gone ([1]; hydrocortisone alone): ~12 h; AUC (sum of the individual vasoconstriction scores through 18 hours) ([1]; hydrocortisone alone, 1 mM (0.036% by weight), 20 μL on disc, 4 hours, 6 forearms): 0; AUC (sum of the individual vasoconstriction scores through 18 hours) ([1]; hydrocortisone alone, 2 mM (0.073%), 6 forearms): 0; AUC (sum of the individual vasoconstriction scores through 18 hours) ([1]; hydrocortisone alone, 5 mM (0.181%), 6 forearms): 0; AUC (sum of the individual vasoconstriction scores through 18 hours) ([1]; hydrocortisone alone, 10 mM (0.363%), 6 forearms): 3; AUC (sum of the individual vasoconstriction scores through 18 hours) ([1]; hydrocortisone alone, 25 mM (0.906%), 6 forearms): 5; AUC (sum of the individual vasoconstriction scores through 18 hours) ([1]; hydrocortisone alone, 50 mM (1.81%), 6 forearms): 18; AUC (sum of the individual vasoconstriction scores through 24 hours) ([2]; HC 25 mM + Δ^1-CA 0 mM (HC alone, Δ^1-CA series)): 14; AUC (sum of the individual vasoconstriction scores through 24 hours) ([2]; HC 25 mM + Δ^1-MeCA 0 mM (HC alone, Δ^1-MeCA series)): 33
CCOC(=O)O[C@]1(C(=O)OCCl)CC[C@H]2[C@@H]3CCC4=CC(=O)C=C[C@]4(C)[C@H]3[C@@H](O)C[C@@]21C [loteprednol, loteprednol etabonate] | – | – | – | – | – | – | – | – | – | – | – | – | intrinsic activity in receptor binding [3]: intrinsically active
COC(=O)[C@@]1(O)CCC2C3CCC4=CC(=O)C=CC4(C)C3C(O)CC21C (stereo partly drawn) [Δ^1-Cortienic Acid Methyl Ester, methyl 11β,17α-dihydroxyandrosta-1,4-dien-3-one-17β-carboxylate] | neither Δ^1-cortienic acid nor Δ^1-cortienic acid methyl ester had any vasoconstriction activity | able to extend the time period | enhanced the vasoconstrictor activity of hydrocortisone | 0 | 0 | 0 | 0 | 0 | does not appear to add any significant benefit | increased the vasoconstriction activity of HC | synergistic results | 0 | time after which pallor could still be detected in one arm ([2]; co-applied with HC): ≥ 5 days; increasing activity and duration compared with Δ^1-CA ([2]; co-applied with HC 25 mM): higher increasing activity and longer duration
CC12C=CC(=O)C=C1CCC1C2C(O)CC2(C)C1CC[C@]2(O)C(=O)O (stereo partly drawn) [Δ^1-Cortienic Acid, 11β,17α-dihydroxyandrosta-1,4-dien-3-one-17β-carboxylic acid] | neither Δ^1-cortienic acid nor Δ^1-cortienic acid methyl ester had any vasoconstriction activity | able to extend the time period | enhanced the vasoconstrictor activity of hydrocortisone | 0 | 0 | 0 | 0 | 0 | appears to decrease activity | increased the vasoconstriction activity of HC | synergistic results | 0 | –
